Results taken from patent publication US8367094B2, “Antimicrobial material and method for making the same” (priority 2008, dated 2013).

Experiments:
[1] = test system: P. aeruginosa; settings: known in the art; cited from earlier work
[2] = test system: S. aureus; assay: in vitro agar zone of inhibition (ZOI) test; assay type: cell-based; settings: 24 hours
Procedure: In an experimental procedure, using a commercially-available, medical grade polyurethane (PU) solution (available, for example from ChronoFlex AR, CardioTech International, Inc. of Woburn, Mass.), silver salt(s) is/are manually incorporated into the solution. The silver-loaded ChronoFlex solution is spread onto glass, and dried in a circulating oven at 80 C for 1.5 hours. The loaded PU film was allowed to equilibrate at RT for at least two days, and subsequently demolded. The film was manually cut into circles by means of a cork borer, and placed into serially-labeled Petri dishes. The microbiology technician was blinded regarding which silver salts were incorporated into the film. Two types of silver salts were tested as described generally above: (1) soluble salts for quick release, and (2) an insoluble salt for longevity.
If the test samples show a “zone of inhibition” (“ZOI”) the specimen thus display the capacity to kill the microorganisms tested. The ZOI is measured in mm; the greater the ZOI distance, the more powerful is the microbiocidal effect. Note that, prior to application, the test films were sterilized using short-wave UV at a distance of 2 inches for 10 seconds.
Using a 10 mm sample disc, the microbial growth inhibition was measured from the edge of each sample disc, producing antimicrobial results in accordance with the following Table:

SMILES	effectiveness against Gram-negative rods (such as pseudomonas aeruginosa) [1]	microbiocidal activity against S. aureus, in words [2]
[H]/N=C(\N/C(=N/[H])NCCCCCCNC(=N)NC(=N)Nc1ccc(Cl)cc1)Nc1ccc(Cl)cc1 [chlorhexidine]	somewhat ineffective	
O=C([O-])c1ccccc1.[Ag+] [silver benzoate]		totally ineffective
O=C([O-])C(F)(F)F.[Ag+] [silver trifluoroacetate]		effective against Gram-positives, but for very short periods of time
CC(O)C(=O)[O-].[Ag+] (stereo not shown) [silver lactate]		totally ineffective
